Publication PMC6958387, “Biological Evaluation of Arylsemicarbazone Derivatives as Potential Anticancer Agents” (Pharmaceuticals, 2019)
Each block holds one molecule with its values, some of them ahead of it.

Assays:
[1] = target: panel of ten different protein kinases; assay: Kinase inhibition, panel of ten protein kinases; format: biochemical; details: 3c: except towards HASPIN, CK1 and GSK3; inactive = IC50 > 10 μM; read-out: IC50 across the kinase panel
Excerpt: A panel of ten native or recombinant protein kinases was used during this study: […]

GSK3 α/β = assay: Kinase inhibition assay (ADP-Glo); format: biochemical, Sus scrofa domesticus; details: 10 µM ATP
Method: SscGSK-3α/β (Sus scrofa domesticus, glycogen synthase kinase-3, affinity purified from porcine brain) was assayed in buffer A with 0.010 µg/µL of GS-1 peptide, a GSK-3-selective substrate ([…]pEDEEE, “Sp” stands for phosphorylated serine).

HL-60 cells [2] = assay: Annexin V-FITC/7-AAD test, flow cytometry; format: cell-based, human; details: for cells in initial apoptosis [Annexin V(+) and 7-AAD(−)] / cells in late apoptosis [Annexin V(+) and 7-AAD(+)] / dead cells [Annexin V(−) and 7-AAD (+)]: 72 h
Method: Aiming to better study the mechanism of induction of death involved in HL-60 cells after treatment with compounds 3c and 4a, a flow cytometric test was performed after double staining with annexin V-FITC/7-AAD. This assay is based on the ability of annexin V to bind with high affinity to phosphatidylserine which is translocated to the outer membrane of apoptotic cells and the 7-AAD dye binds to the DNA of cells with loss of membrane integrity. Thus, in this test it is possible to identify four distinct populations: viable cells [Annexin V(−) and 7-AAD(−)], initial apoptotic cells [Annexin V(+) and 7-AAD(−)], late apoptotic cells [Annexin V(+) and 7-AAD(+)] and dead cells [Annexin V(−) and 7-AAD (+)] [59].
(§1) HL-60 cells (3 × 10^5) were plated in 24-well plates and treated with the compounds 3c (13 and 26 μM) and 4a (11 and 22 μM) for 72 h at 37 °C with 5% CO2. In all trials, doxorubicin was used as a positive control. After the incubation period, an aliquot of 500 μL of treated and untreated cells suspension was transferred to an Eppendorf tube and centrifuged to remove the supernatant and continue the protocol of the test. In the cell viability and annexin V assays, kits were used, ViaCount kit and guava nexin kit (Guava Technologies), respectively. The protocols performed in these tests followed the manufacturer’s instructions. For to analyze mitochondrial depolarization, rhodamine 123 fluorescent dye was used. In the assay for cell cycle analysis and DNA fragmentation propidium iodide was used. The experiments were performed on Guava EasyCyte HT (Merck-Millipore) flow cytometer, acquiring 5000 events. The data were analyzed in Guava-Soft™ software version 2.7. Three independent experiments were performed in triplicate.

DYRK1A = target: T1, DYRK1A (Rattus norvegicus, UniProt Q63470); assay: Kinase inhibition assay (ADP-Glo); format: biochemical; details: 10 µM ATP
T1 construct: amino acids 1 to 499 including the kinase domain; made in house; host or cells: bacteria
Method: RnDYRK1A (Rattus norvegicus, amino acids 1 to 499 including the kinase domain, recombinant, expressed in bacteria, DNA vector kindly provided by Dr. W. Becker, Aachen, Germany) was assayed in buffer A with 0.033 μg/µL of the following peptide: KKISGRLSPIMTEQ as substrate.

MOLT-4 = assay: MTT cytotoxicity, 72 h; format: cell-based, human; details: Homo sapiens, MOLT-4, 72 h of incubation
CDK5/p25 = target: T2, CDK5/p25 (Homo sapiens, UniProt Q00535); assay: Kinase inhibition assay (ADP-Glo); format: biochemical; details: 10 µM ATP
T2 construct: made in house; host or cells: bacteria
Method: HsCDK5/p25 (human, recombinant, expressed in bacteria) was assayed in buffer A, with 0.8 µg/µL of histone H1 as substrate.

HL-60 cells [3] = assay: Cell cycle assay (propidium iodide), flow cytometry; format: cell-based, human; details: 72 h
Method: In order to improve the study of the mechanism of death induction by compounds 3c and 4a in HL-60 cells, a test was performed on the flow cytometer after staining with propidium iodide to evaluate the effect of the compounds on cell cycle progression (Figure 6).
as §1

HL-60 cells [4] = assay: DNA fragmentation assay (sub-G1, propidium iodide); format: cell-based, human; details: 72 h
Excerpt: DNA fragmentation is initiated after chromatin condensation and depends on several variables, such as the time required for the depolarization of the mitochondria and activation of the caspase cascade. In response to DNA damage the p53 protein is activated causing cell cycle arrest in G1 [57]. At flow cytometry the apoptotic cells with fragmented DNA can be identified as the sub-G1 population, seen to the left of the G1 peak. Thus, using the fluorochrome propidium iodide and the same principle of the cell cycle test, an assay was performed to identify HL-60 cells with fragmented DNA (Figure 7).
as §1

AURKB = target: T3, AURKB (Homo sapiens, UniProt Q96GD4); assay: Kinase inhibition assay (ADP-Glo); format: biochemical; details: 10 µM ATP
T3 construct: purchased SignalChem A31-10G; host or cells: Sf9 insect cells (baculovirus)
T3 sequence (Q96GD4 whole entry): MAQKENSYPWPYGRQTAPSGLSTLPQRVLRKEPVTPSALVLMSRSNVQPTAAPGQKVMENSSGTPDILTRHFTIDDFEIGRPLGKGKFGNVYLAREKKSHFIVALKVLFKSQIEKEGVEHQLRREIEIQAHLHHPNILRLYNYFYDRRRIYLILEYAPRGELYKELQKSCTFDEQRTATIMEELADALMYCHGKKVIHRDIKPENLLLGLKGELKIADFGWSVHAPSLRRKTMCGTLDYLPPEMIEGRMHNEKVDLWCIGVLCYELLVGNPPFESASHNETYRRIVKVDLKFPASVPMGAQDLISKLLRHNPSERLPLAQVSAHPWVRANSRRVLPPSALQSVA

T2 sequence (Q00535 whole entry): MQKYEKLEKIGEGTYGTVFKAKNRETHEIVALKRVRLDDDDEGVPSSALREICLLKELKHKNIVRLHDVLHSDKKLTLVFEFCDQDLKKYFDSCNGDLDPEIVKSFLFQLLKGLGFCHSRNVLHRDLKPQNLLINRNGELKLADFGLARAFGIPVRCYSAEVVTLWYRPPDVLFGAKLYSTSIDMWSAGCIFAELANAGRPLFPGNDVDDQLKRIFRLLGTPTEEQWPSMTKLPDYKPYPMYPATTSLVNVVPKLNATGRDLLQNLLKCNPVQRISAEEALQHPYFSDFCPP
T2 sequence (Q15078 99-307 partner limits assumed): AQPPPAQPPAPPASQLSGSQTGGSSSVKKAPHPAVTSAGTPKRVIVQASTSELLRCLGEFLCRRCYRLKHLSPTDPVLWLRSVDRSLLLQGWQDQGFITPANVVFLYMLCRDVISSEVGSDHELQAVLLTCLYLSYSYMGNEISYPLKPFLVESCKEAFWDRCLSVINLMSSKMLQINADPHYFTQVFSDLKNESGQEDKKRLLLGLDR

- IC50 [1]: 0.073 to 5.1 µM
- IC50 (GSK3 α/β): > 10 µM
- IC50 (DYRK1A): 0.073 µM
- IC50 (CDK5/p25): 0.35 µM
- IC50 (AURKB): 5.1 µM
SMILES: NC(=O)N/N=C/c1c(O)ccc2ccccc12 [Compound 3c, 2-Hydroxynaphthaldehyde Semicarbazone]
- cells in initial apoptosis [Annexin V(+) and 7-AAD(−)] (HL-60 cells [2]; 13 μM): 16.7%
- cells in late apoptosis [Annexin V(+) and 7-AAD(+)] (HL-60 cells [2]; 13 μM): 7.4%
- cells in initial apoptosis [Annexin V(+) and 7-AAD(−)] (HL-60 cells [2]; 26 μM): 27.2%
- cells in late apoptosis [Annexin V(+) and 7-AAD(+)] (HL-60 cells [2]; 26 μM): 18.1%
- cells in apoptosis (annexin V assay) (HL-60 cells [2]; highest concentration tested (26 μM)): approximately 50%
- IC50 (MOLT-4): 41 ± 0.7 µM
- cells in G1 phase (HL-60 cells [3]; 13 μM): 63.3%
- cells in G1 phase (HL-60 cells [3]; 26 μM): 66.2%
- cells with DNA fragmentation (HL-60 cells [4]; 13 μM): 3.2%
- cells with DNA fragmentation (HL-60 cells [4]; 26 μM): 7.5%

- IC50 [1]: > 10 µM
- IC50 (GSK3 α/β): > 10 µM
- IC50 (DYRK1A): > 10 µM
- IC50 (CDK5/p25): > 10 µM
- IC50 (AURKB): > 10 µM
SMILES: Cc1ccc(C=NNC(N)=O)cc1 [Compound 3g, 4-Methylbenzaldehyde Semicarbazone]
- IC50 (MOLT-4): 56.4 ± 0.97 µM

- IC50 (GSK3 α/β): > 10 µM
- IC50 (DYRK1A): > 10 µM
- IC50 (CDK5/p25): > 10 µM
- IC50 (AURKB): > 10 µM
SMILES: CCCCN(N=Cc1ccc([N+](=O)[O-])o1)C(N)=O [Compound 4a, 5-Nitro-2-(N^2-n-butyl)furfuraldehyde Semicarbazone]
- cells in initial apoptosis [Annexin V(+) and 7-AAD(−)] (HL-60 cells [2]; 11 μM): 5.4%
- cells in late apoptosis [Annexin V(+) and 7-AAD(+)] (HL-60 cells [2]; 11 μM): 8.3%
- dead cells [Annexin V(−) and 7-AAD (+)] (HL-60 cells [2]; 11 μM): 9.1%
- cells in initial apoptosis [Annexin V(+) and 7-AAD(−)] (HL-60 cells [2]; 22 μM): 4.7%
- cells in late apoptosis [Annexin V(+) and 7-AAD(+)] (HL-60 cells [2]; 22 μM): 12.5%
- dead cells [Annexin V(−) and 7-AAD (+)] (HL-60 cells [2]; 22 μM): ~50%
- IC50 (MOLT-4): 19.5 ± 0.62 µM
- cells in G1 phase (HL-60 cells [3]; 11 μM): 62.7%
- cells in G1 phase (HL-60 cells [3]; 22 μM): 81.9%
- cells with DNA fragmentation (HL-60 cells [4]; 11 μM): 7.0%
- cells with DNA fragmentation (HL-60 cells [4]; 22 μM): 40.3%
